The text below walks through data of US20260166003A1, “NOVEL APTAMER, AND COMPOSITION FOR COGNITIVE FUNCTION IMPROVEMENT AND ANTI-AGING COMPRISING APTAMER AS ACTIVE INGREDIENT” (NEXMOS CO., LTD, priority 2021, published 2026).

The nature of data set [1]: OPDA assay in gastric acid-like low pH environment. It is filed as physicochemical. Particulars: pH between 1.4 and 1.6 with hydrochloric acid, hydrogen peroxide, 900 minutes; compared to normal condition; FIG. 3. As for the experimental part: OPDA assay was used to confirm whether the vitamin C oxidation delay effect of aptamin C320 was maintained in a low pH environment similar to gastric acid in order to confirm that the effect of the substance was not reduced or eliminated by the pH environment in the stomach when ingested orally.
Thereafter, hydrogen peroxide was added to prepare an oxidation condition, and at this time, the pH was adjusted to be between 1.4 and 1.6 using hydrochloric acid, and oxidation of L-ascorbic acid was measured by adding an o-phenylenediamine (OPDA), which is a fluorescent dye. The degree of DHA production can be quantitatively analyzed by measuring the amount of fluorescence from DHA-OPDA generated by the reaction of DHA, an oxide of L-ascorbic acid, with OPDA. Under the above conditions, the fluorescence amount of DHA-OPDA was measured every 2 minutes for a total of 900 minutes.

A short description of data set [2]: OPDA assay of vitamin C oxidation delay. It is filed as biochemical. Particulars: L-ascorbic acid 0.1%, aptamer 0.001%, hydrogen peroxide, 900 minutes; compared with C332 and other 20 mer aptamers; FIG. 2. As for the experimental part:
In this case, the L-ascorbic acid was mixed at a ratio of 0.1% and the aptamer was mixed at 0.001%. Thereafter, hydrogen peroxide was added to prepare an oxidation condition, and then oxidation of L-ascorbic acid was measured by adding o-phenylenediamine (OPDA), a fluorescent dye. The degree of DHA production may be quantitatively analyzed by measuring the amount of fluorescence from DHA-OPDA generated by the reaction of DHA, an oxide of L-ascorbic acid, with OPDA. Under the above conditions, the amount of fluorescence of DHA-OPDA was measured every 2 minutes for a total of 900 minutes.

Turning to “aptamin C320: 20 mer DNA aptamer, SEQ ID NO: 1, GCCAGTCTCGCGGTGGCGGC, delays oxidation of vitamin C (DNA, backbone and methylation of C not given here)”, in data set [1], the “maintenance of vitamin C oxidation delay effect in acid condition” value is listed as “maintained without significantly decreasing in acid condition”. For the same substance, the “vitamin C oxidation delay effect (DHA-OPDA fluorescence)” value in data set [2] was “delays the oxidation of vitamin C to the highest extent”.
